Experimental data: patent publication US7414138B2, “Benzoxazole and benzodiazole UV-A sunscreens” (DSM IP Assets B.V., priority 2002, dated 2008)

How the values were obtained:
[1] = Solubility measurement in cosmetic solvents (saturated solution, UV spectroscopy); conditions: for solubility in Crodamol DA: Crodamol DA (diisopropyl adipate); for solubility in Crodamol DA / solubility in Cétiol LC: room temperature, 18 hours; for solubility in Cétiol LC: Cétiol LC (cocoyl caprylate caprate)
Procedure: An excess of the UV sunscreen was placed in a flask, containing Cétiol LC (cocoyl caprylate caprate) and Crodamol DA (diisopropyl adipate), respectively. The suspension was mixed and treated in an ultrasound bath for 10 minutes. After standing at room temperature for 18 hours, the solution over the remaining crystals was filtered through a millipore microfilter (pore size of 0.45 μm). The concentration of this saturated solution was determined by means of UV spectroscopy in comparison with a calibration curve.

[2] = Photostability, irradiation in high dilution with 150 W Hg-lamp (on-line Hg-lamp/HPLC); assay type: physicochemical; conditions: for photostability (in words): irradiated in high dilution with a Hg-lamp 150 W from Heraeus
Procedure: The photostability is measured in an on-line system Hg-lamp/HPLC, using a 150 W Hg-lamp of Heraeus with Pyrex filter (2.3 mm) and a Teflon capillary tube with 0.3 mm inside diameter and a total length of 10 m. 3.6. mg of the sample is dissolved in 16 ml of MeOH and 10 μl of this solution injected. The degradation products are not separated. UV-absorption at a wavelength of 358 nm of the irradiated solution is measured periodically up to 14 minutes and the result is compared with the corresponding photostability of butyl methoxy dibenzoylmethane. The product was detected in >90%, indicating photostability, whereas only 16% of butyl methoxy dibenzoylmethane could be detected after 14 minutes of irradiation.
Alternatively, the measurement is performed according to the protocol described in the International Journal of Cosmetic Science 18, 167-177 (1996).

Row | SMILES | solubility in Cétiol LC (in words) ([1]; Cétiol LC) | photostability (in words) [2] | solubility in Crodamol DA [1] [%] | solubility in Cétiol LC [1] [%] | melting point [°C] | product detected after irradiation ([2]; MeOH solution, 150 W Hg-lamp with Pyrex filter, UV-absorption at 358 nm, after 14 minutes of irradiation) [%] | solubility in Crodamol DA (in words) ([1]; Crodamol DA)
1 | CCCCOC(=O)C(=Cc1ccc(-c2nc3ccccc3o2)cc1)C(=O)OCCCC [Example 3, 2-(4-Benzoxazol-2-yl-benzylidene)-malonic acid dibutyl ester] | miscible | photostable | – | – | – | – | –
2 | CCOC(=O)C(=Cc1ccc(-c2nc3ccccc3o2)cc1)C(=O)OCC [Example 1, 2-(4-Benzoxazol-2-yl-benzylidene)-malonic acid diethyl ester] | – | – | 11 | 4.5 | 99 to 102 | > 90 | –
3 | CCOC(=O)C(=Cc1ccc(-c2nc3ccc(O)cc3o2)cc1)C(=O)OCC [Example 6, 2-(4-[6-Hydroxy-benzoxazol-2-yl]-benzylidene)-malonic acid diethyl ester] | – | photostable | 1.6 | – | 153 to 155 | – | –
4 | CCOCCOCCOc1ccc2nc(-c3ccc(C=C(C(=O)OCC)C(=O)OCC)cc3)oc2c1 [Example 8] | – | photostable | – | 4.6 | 43 to 45 | – | –
5 | CCCCC(CC)COc1ccc2nc(-c3ccc(C=C(C(=O)OCC)C(=O)OCC)cc3)oc2c1 (stereo not shown) [Example 7] | – | photostable | – | 10.2 | 50 to 52 | – | –
6 | C=C(COc1ccc2nc(-c3ccc(C=C(C(=O)OCC)C(=O)OCC)cc3)oc2c1)[Si](C)(O[Si](C)(C)C)O[Si](C)(C)C [Example 9] | – | excellent photostability | – | – | – | – | unlimited solubility
7 | CCCCC(CC)COC(=O)/C(C#N)=C/c1ccc(-c2nc3ccccc3o2)cc1 (stereo not shown) [Example 4, 2-Cyano-3-{4-benzoxazol-2-yl-phenyl}-acrylic acid 2-ethylhexyl ester] | – | photostable after E/Z isomerisation | 2.8 | 1.6 | 84 to 85 | – | –
8 | CCCCC(CC)COC(=O)/C(C#N)=C/c1ccc(-c2nc3cc(C(C)(C)C)ccc3o2)cc1 (stereo not shown) [Example 2, 2-Cyano-3-{4-[5-tert.-butyl-benzoxazol-2-yl]-phenyl}-acrylic acid 2-ethylhexyl ester] | – | photostable | 7.4 | 3.8 | 80 to 81 | – | –
